Assay [1] concerns CFTR-Y122X. The experiment in a line: CFTR-Y122X assay (dual reporter isogenic Hek293 cell lines, Renilla luminescence readthrough). The assay is classed as cell-based. Conditions: Homo sapiens, HEK293, nonsense mutation suppression, 24 h incubation; for Emax: 100% = 14 mM paromomycin, tested up to 100 μM, read-out: Amax [%]. The method, boiled down:
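Stable isogenic HEK dual-reporter line (eGFP–CFTR Y122X TGA PTC–myc–Renilla); 2000 cells/well, 24 h, then compound (10 μM; tested up to 100 μM) 24 h at 37 °C. Renilla luminescence normalised to neutral (0%) and 14 mM paromomycin (100%); wildtype construct counterscreen.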

For assay [2], the system named is α-L-iduronidase Q70X. The experiment in a line: α-L-iduronidase-Q70X assay (restored enzyme activity in cell lysates, 4-MU iduronide substrate). The class given is cell-based, human. Conditions: 48 h treatment; for Q70X Amax [%]: paromomycin 14 mM as reference control; for AC50: Homo sapiens. As for the experimental part: (§1) Activity of compounds of the present invention was examined using a functional readout for two clinically common stop codon (TAG) mutants (Q70X, W402X) of the lysosomal enzyme α-L-iduronidase. Lack of α-L-iduronidase expression in such stop codon patients leads to the lysosomal storage disorder Mucopolysaccharidosis I (MPSI) also called Hurler syndrome.
(§2) Reporter constructs analogous to constructs above were expressed. In the assay, 2500 cells/well were treated for 48 h with compound, washed with PBS and lysed (0.4 M Sodiumformate, 0.1% NaN3, 0.9% NaCl, 0.2% Triton, pH 3.5). Restored α-L-iduronidase activity in cell lysates was measured with the fluoresecent 4-MU iduronide substrate (4 Methylumbelliferyl α-L-iduronide) after 45 min incubation. Again, paromomycin was used as reference control (14 mM).

Assay [3] has as its system α-L-iduronidase W402X. Put plainly: α-L-iduronidase-W402X assay (restored enzyme activity in cell lysates, 4-MU iduronide substrate). Conditions: 48 h treatment; for W402X Amax [%]: paromomycin 14 mM as reference control; for AC50: Homo sapiens. The class given is cell-based, human. As for the experimental part: as §1, §2
Assay [4] concerns human coagulation factor F9 containing the R29X (TAG) mutation. The experiment in a line: F9-R29X assay (full length F9 expression in isogenic HekR4 cells, imaging / F9 ELISA). The class given is cell-based. Conditions: nonsense mutation suppression; for AC50: Homo sapiens. As to the method: Activity of compounds of the present invention was examined using reporter constructs of full length human coagulation factor F9 containing the R29X (TAG) mutation known from hemophilia B patients (“F9-R29X assay”). Full length F9 cDNA was stably expressed in the above isogenic HekR4 cell background. Stop codon readthrough and full length F9 expression was determined with a miniaturized confocal high throughput imaging assay. In paraformaldehyde fixed and permeabilized cells (10 uM compound; 24 h incubation) F9 expression was identified with a commercial F9 antibody raised against the F9 C-terminus. […] F9 staining intensity (Alexa-Fluor 488) and Draq5 nuclear staining served as readout for data calculation. Percent activity was measured in comparison to high (active control) and low controls (DMSO solvent).

Molecules are shown by their SMILES.

Turning to `Cn1c2ccccc2c(=O)c2c(=O)n(C3CCCCC3)c(-c3cccs3)nc21` [Example 2.17, 3-cyclohexyl-10-methyl-2-(thiophen-2-yl)pyrimido[4,5-b]quinoline-4,5(3H,10H)-dione], in assay [1], the Emax stood at 293% and the AC50 was found to be 5800 nM. Further, in assay [2], the “Q70X Amax [%]” value worked out at 265% and the half-maximal activity concentration (AC50) worked out at 2100 nM. Moreover, in assay [3], the “W402X Amax [%]” value worked out at 211% and half-maximal activity (AC50) was put at 2900 nM. Further, in assay [4], the AC50 was determined as 5400 nM and the “Amax [%]” value is 157%.

On to `Cn1c2ccccc2c(=O)c2c(=O)n(C3CCCCC3)c(-c3ccco3)nc21` [Example 2.20, 3-cyclohexyl-2-(furan-2-yl)-10-methylpyrimido[4,5-b]quinoline-4,5(3H,10H)-dione], for which, in assay [1], the Emax was determined as 201% and the AC50 came to 2300 nM. In addition, in assay [2], the “Q70X Amax [%]” value was determined as 386% and half-maximal activity (AC50) was put at 1000 nM. In assay [3], the “W402X Amax [%]” value was 189% and half-maximal activity (AC50) was put at 900 nM. Moreover, in assay [4], the concentration at half-maximal activity (AC50) amounted to 5500 nM and the “Amax [%]” value was found to be 158%.

For `CCc1nc2c(c(=O)c3ccccc3n2C)c(=O)n1C1CCCCCC1` [Example 2.31, 3-cycloheptyl-2-ethyl-10-methylpyrimido[4,5-b]quinoline-4,5(3H,10H)-dione], in assay [1], the Emax stood at 67% and half-maximal activity (AC50) was put at 2500 nM. For the same molecule, in assay [2], the “Q70X Amax [%]” value was 438% and half-maximal activity (AC50) was put at 1700 nM. Further, in assay [3], the “W402X Amax [%]” value was found to be 300% and half-maximal activity (AC50) was put at 2900 nM. Further, in assay [4], the AC50 amounted to 1900 nM and the “Amax [%]” value was 167%.
